Reference: patent US20170304388A1, “NEW INDICATION OF CARDIOVASCULAR DRUGS FOR PREPARATION OF CANCER INHIBITION PHARMACEUTICAL COMPOSITION” (LAUNX BIOMEDICAL CO., LTD., priority 2014, published 2017)

What was measured:
Format in all cases: cell-based
[1] = system: A375 (Amelanotic Melanoma); assay: Cell viability analysis (WST-1), A375; settings: Table 4, repeated experiments, drug 10 μM; for viability at 10 µM: Homo sapiens, A-375, 72 h, WST-1, read-out: survival rate (viability) of cancer cells, A375
[2] = system: MCF7 (Mammary Gland, Adenocarcinoma); assay: Cell viability analysis (WST-1), MCF7; settings: Table 4, repeated experiments, drug 10 μM; for viability at 10 µM: Homo sapiens, MCF7, 72 h, WST-1, read-out: survival rate (viability) of cancer cells, MCF-7
TOV-21G = assay: Cell viability analysis (WST-1), TOV-21G; settings: Table 4, repeated experiments, drug 10 μM; for viability at 10 µM: Homo sapiens, TOV21G, 72 h, read-out: survival rate (viability) of cancer cells, TOV-21G
Experimental: (§1) Subculture the different types of cancer cells. The cancer cells includes lung cancer, gastric cancer, hepatic cancer, colon cancer, skin cancer, cervical cancer, prostate cancer, bladder cancer, breast cancer, leukemia, pancreatic cancer, ovarian cancer, tongue cancer, osteosarcoma, and renal cancer. The cell numbers were counted and reseed as 2×10^6 in cell culture plate/flask. Then, the culture medium for culturing the cell lines was added to a volume of 10 ml, and the cells were cultured for 2-3 days. Then, the cells were suspended for loading into 96-well plates. The cell number was 3000 cells and the volume of the culture medium was 100 ul each well.
(§2) Removing the original culture medium from 96-well plate. Then add 100 μl of commercially drug at a concentration of 10 μM per well. After 72 hours, add the diluted WST-1 reagent to the well with 100 μl/well, and the diluted WST-1 reagent was acquired from the dilution of 9:1 medium and WST-1 stock reagent. Finally, the total volume of each well are 200 μl/well. Culture the 96-well plate at 37° C. for 30 to 90 minutes. Detecting and calculating the survival rate of each cancer cells with an ELISA reader at OD450 nm. The lower viability of cancer cells represents better inhibition effect via the drugs. Otherwise, the higher viability of cancer cells represents worse inhibition effect via the drugs.
(§3) According to the above mentioned cardiovascular drugs for cancer growth inhibition in Table 3, the inventors took the repeat experiments for the cardiovascular drugs to check the growth inhibitory effects of cancer cells by the cardiovascular drugs. […] 4.

[3] = system: TSGH-8301 (Urinary Bladder Carcinoma); assay: Cell viability analysis (WST-1), TSGH-8301; settings: 72 h, Table 4, repeated experiments, drug 10 μM, WST-1, read-out: survival rate (viability) of cancer cells, TSGH-8301
[4] = system: HepG2 (Hepatocellular Carcinoma); assay: Cell viability analysis (WST-1), HepG2; settings: Table 4, repeated experiments, drug 10 μM; for viability at 10 µM: Homo sapiens, HepG2, 72 h, WST-1, read-out: survival rate (viability) of cancer cells, HepG2
BxPC-3 = assay: Cell viability analysis (WST-1), BxPC-3; settings: Homo sapiens, BXPC-3, 72 h, Table 4, repeated experiments, drug 10 μM, read-out: survival rate (viability) of cancer cells, BxPC-3
Experimental: as §1, §2, §3

NIH-OVCAR-3 = assay: Cell viability analysis (WST-1), NIH-OVCAR-3; settings: Table 4, repeated experiments, drug 10 μM; for viability at 10 µM: Homo sapiens, OVCAR-3, 72 h, read-out: survival rate (viability) of cancer cells, NIH-OVCAR-3
Experimental: as §1, §2, §3

cancer cell lines = assay: Growth inhibitory effects on the panel of cancer cell lines; settings: drug 10 μM, 72 hours, WST-1
Hep3B = assay: Cell viability analysis (WST-1), Hep3B; settings: Table 4, repeated experiments, drug 10 μM; for viability at 10 µM: Homo sapiens, Hep3B, 72 h, read-out: survival rate (viability) of cancer cells, Hep3B
Experimental: as §1, §2, §3

786-O = assay: Cell viability analysis (WST-1), 786-O; settings: Homo sapiens, 786-0, 72 h, Table 4, repeated experiments, drug 10 μM, read-out: survival rate (viability) of cancer cells, 786-O
Experimental: as §1, §2, §3

T24 = assay: Cell viability analysis (WST-1), T24; settings: Homo sapiens, T-24, 72 h, Table 4, repeated experiments, drug 10 μM, read-out: survival rate (viability) of cancer cells, T24
Experimental: as §1, §2, §3

[5] = system: A549 (Lung Adenocarcinoma); assay: Cell viability analysis (WST-1), A549; settings: Table 4, repeated experiments, drug 10 μM; for viability at 10 µM: Homo sapiens, A549, 72 h, WST-1, read-out: survival rate (viability) of cancer cells, A549
MDA-MB231 = assay: Cell viability analysis (WST-1), MDA-MB231; settings: Table 4, repeated experiments, drug 10 μM; for viability at 10 µM: Homo sapiens, MDA-MB-231, 72 h, read-out: survival rate (viability) of cancer cells, MDA-MB231
C-33A = assay: Cell viability analysis (WST-1), C-33A; settings: Table 4, repeated experiments, drug 10 μM; for viability at 10 µM: Homo sapiens, C-33-A, 72 h, read-out: survival rate (viability) of cancer cells, C-33A
Experimental: as §1, §2, §3

SAS = assay: Cell viability analysis (WST-1), SAS; settings: 72 h, Table 4, repeated experiments, drug 10 μM, read-out: survival rate (viability) of cancer cells, SAS
Experimental: as §1, §2, §3

BCC = assay: Cell viability analysis (WST-1), BCC; settings: Table 4, repeated experiments, drug 10 μM; for viability at 10 µM: BCC, 72 h, read-out: survival rate (viability) of cancer cells, BCC
[6] = system: LoVo (Colorectal Adenocarcinoma); assay: Cell viability analysis (WST-1), LoVo; settings: Table 4, repeated experiments, drug 10 μM; for viability at 10 µM: Homo sapiens, LoVo, 72 h, WST-1, read-out: survival rate (viability) of cancer cells, LoVo
AsPC-1 = assay: Cell viability analysis (WST-1), AsPC-1; settings: Table 4, repeated experiments, drug 10 μM; for viability at 10 µM: Homo sapiens, ASPC1, 72 h, read-out: survival rate (viability) of cancer cells, AsPC-1
Experimental: as §1, §2, §3

[7] = system: MKN-45 (Gastric Adenocarcinoma); assay: Cell viability analysis (WST-1), MKN-45; settings: Homo sapiens, MKN-45, 72 h, Table 4, repeated experiments, drug 10 μM, WST-1, read-out: survival rate (viability) of cancer cells, MKN-45
[8] = system: AGS (Gastric Adenocarcinoma); assay: Cell viability analysis (WST-1), AGS; settings: 72 h, Table 4, repeated experiments, drug 10 μM, WST-1, read-out: survival rate (viability) of cancer cells, AGS
[9] = system: PC3 (Prostate Adenocarcinoma); assay: Cell viability analysis (WST-1), PC3; settings: Table 4, repeated experiments, drug 10 μM; for viability at 10 µM: 72 h, WST-1, read-out: survival rate (viability) of cancer cells, PC-3
[10] = system: H1650 (Lung Adenocarcinoma); assay: Cell viability analysis (WST-1), H1650; settings: Table 4, repeated experiments, drug 10 μM; for viability at 10 µM: Homo sapiens, NCI-H1650, 72 h, WST-1, read-out: survival rate (viability) of cancer cells, H1650
[11] = system: HCT116 (Colorectal Carcinoma); assay: Cell viability analysis (WST-1), HCT116; settings: Table 4, repeated experiments, drug 10 μM; for viability at 10 µM: Homo sapiens, HCT-116, 72 h, WST-1, read-out: survival rate (viability) of cancer cells, HCT116
[12] = system: HeLa (Cervix Adenocarcinoma); assay: Cell viability analysis (WST-1), HeLa; settings: Table 4, repeated experiments, drug 10 μM; for viability at 10 µM: Homo sapiens, HeLa, 72 h, WST-1, read-out: survival rate (viability) of cancer cells, HeLa
U2OS = assay: Cell viability analysis (WST-1), U2OS; settings: Homo sapiens, U2OS, 72 h, Table 4, repeated experiments, drug 10 μM, read-out: survival rate (viability) of cancer cells, U2OS
Experimental: as §1, §2, §3

Compound | viability at 10 µM [1] [%] | viability at 10 µM [2] [%] | viability at 10 µM (TOV-21G) [%] | viability at 10 µM [3] [%] | viability at 10 µM [4] [%] | viability at 10 µM (BxPC-3) [%] | viability at 10 µM (NIH-OVCAR-3) [%] | viability at 10 µM (Hep3B) [%] | viability at 10 µM (786-O) [%] | viability at 10 µM (T24) [%] | viability at 10 µM [5] [%] | viability at 10 µM (MDA-MB231) [%] | viability at 10 µM (C-33A) [%] | viability at 10 µM (SAS) [%] | viability at 10 µM (BCC) [%] | viability at 10 µM [6] [%] | viability at 10 µM (AsPC-1) [%] | viability at 10 µM [7] [%] | viability at 10 µM [8] [%] | viability at 10 µM (U2OS) [%] | further results
OC(CNCC(O)C1CCc2cc(F)ccc2O1)C1CCc2cc(F)ccc2O1 (stereo not shown) [Nebivolol(Bystolic), Nebivolol] | 44.9 | 27 | 86.2 | 38 | 42.1 | 74.4 | 86.8 | 44.8 | 38.3 | 97.6 | 49 | 66.4 | 77 | 75.6 | 55.8 | 85.3 | 88.7 | 52.8 | 26.6 | 66.6 | inhibition effect on different cancer cell lines (in words) (cancer cell lines): significant inhibition effect; viability at 10 µM [9]: 37%; viability at 10 µM [10]: 87.4%; viability at 10 µM [11]: 81.9%; viability at 10 µM [12]: 52%
COC(=O)C1=C(C)NC(C)=C(C(=O)OCC(C)C)C1c1ccccc1[N+](=O)[O-] (stereo not shown) [Nisoldipine (Sular), Nisoldipine] | 51.5 | 86.6 | 44.4 | 77.9 | 95.5 | 75.6 | 68.1 | 130 | 49.5 | 67.8 | 48.9 | 74.1 | 66 | 48.8 | 58.8 | 76.9 | 78.8 | 98 | 64.7 | 69.1 | viability at 10 µM [9]: 98.9%; viability at 10 µM [10]: 70%; viability at 10 µM [11]: 77.4%; viability at 10 µM [12]: 76.9%
C[C@@H]1O[C@@H](O[C@H]2C[C@@H](O)[C@]3(CO)[C@H]4[C@H](O)C[C@]5(C)[C@@H](C6=CC(=O)OC6)CC[C@]5(O)[C@@H]4CC[C@]3(O)C2)[C@H](O)[C@H](O)[C@H]1O [Ouabain] | 18.4 | 29.1 | 15.9 | 43.6 | 38.1 | 27 | 42.3 | 33.4 | 14.5 | 17.6 | 15.1 | 44.5 | 35.5 | 20.2 | 25.6 | 39.7 | 20.1 | 53 | 16.6 | 22.8 | viability at 10 µM [9]: 25.8%; viability at 10 µM [10]: 38.7%; viability at 10 µM [11]: 15.9%; viability at 10 µM [12]: 23.1%
CCOC(=O)C1=C(COCCN)NC(C)=C(C(=O)OC)C1c1ccccc1Cl (stereo not shown) [Amlodipine (Norvase), Amlodipine] | – | – | – | 36.2 | – | 86 | – | – | 81.4 | 96.6 | – | – | – | 99.2 | – | – | – | 88.2 | 16.5 | 78.9 | survival rate (viability) of cancer cells, A375 ([1]; 72 hours, WST-1): 81.58; survival rate (viability) of cancer cells, MCF-7 ([2]; 72 hours, WST-1): 63.42; survival rate (viability) of cancer cells, TOV-21G (TOV-21G; 72 hours): 61.32; survival rate (viability) of cancer cells, HepG2 ([4]; 72 hours, WST-1): 71.76; survival rate (viability) of cancer cells, NIH-OVCAR-3 (NIH-OVCAR-3; 72 hours): 90.31; survival rate (viability) of cancer cells, Hep3B (Hep3B; 72 hours): 99.22; survival rate (viability) of cancer cells, A549 ([5]; 72 hours, WST-1): 89.22; survival rate (viability) of cancer cells, MDA-MB231 (MDA-MB231; 72 hours): 87.55; survival rate (viability) of cancer cells, C-33A (C-33A; 72 hours): 38.18; survival rate (viability) of cancer cells, BCC (BCC; 72 hours): 74.9299; survival rate (viability) of cancer cells, LoVo ([6]; 72 hours, WST-1): 90.33; survival rate (viability) of cancer cells, AsPC-1 (AsPC-1; 72 hours): 89.04; survival rate (viability) of cancer cells, PC-3 ([9]; 72 hours, WST-1): 85.88; survival rate (viability) of cancer cells, H1650 ([10]; 72 hours, WST-1): 72.01; survival rate (viability) of cancer cells, HCT116 ([11]; 72 hours, WST-1): 91.96; survival rate (viability) of cancer cells, HeLa ([12]; 72 hours, WST-1): 86.96
